Our source for the EC50, Activity and inhibition in vivo values is ChEMBL document CHEMBL5518233, “Design and Synthesis of 3-(2H-Chromen-3-yl)-5-aryl-1,2,4-oxadiazole Derivatives as Novel Toll-like Receptor 2/1 Agonists That Inhibit Lung Cancer In Vitro and In Vivo” (J Med Chem, 2024).

The structures appear in SMILES notation. Where a SMILES comes first, the peptide text is derived from it. The star is where a group is joined. X1 = CCCCCCCCCCCCCCCC(=O)OCC(C*)OC(=O)CCCCCCCCCCCCCCC; Palmitoyl = CCCCCCCCCCCCCCCC(=O)*

The target in experiment [1] is T1, Toll-like receptor 1/2 (Homo sapiens, UniProt O60603+Q15399). Put plainly: Agonist activity at human TLR2/TLR1 transfected in HEK293T cells incubated for 24 hrs by dual luciferase reporter gene assay. The experiment is classed as cell-based. On the technique in general: In a reporter assay the amount or activity of a reporter protein is the signal.
T1 sequence (O60603 whole entry): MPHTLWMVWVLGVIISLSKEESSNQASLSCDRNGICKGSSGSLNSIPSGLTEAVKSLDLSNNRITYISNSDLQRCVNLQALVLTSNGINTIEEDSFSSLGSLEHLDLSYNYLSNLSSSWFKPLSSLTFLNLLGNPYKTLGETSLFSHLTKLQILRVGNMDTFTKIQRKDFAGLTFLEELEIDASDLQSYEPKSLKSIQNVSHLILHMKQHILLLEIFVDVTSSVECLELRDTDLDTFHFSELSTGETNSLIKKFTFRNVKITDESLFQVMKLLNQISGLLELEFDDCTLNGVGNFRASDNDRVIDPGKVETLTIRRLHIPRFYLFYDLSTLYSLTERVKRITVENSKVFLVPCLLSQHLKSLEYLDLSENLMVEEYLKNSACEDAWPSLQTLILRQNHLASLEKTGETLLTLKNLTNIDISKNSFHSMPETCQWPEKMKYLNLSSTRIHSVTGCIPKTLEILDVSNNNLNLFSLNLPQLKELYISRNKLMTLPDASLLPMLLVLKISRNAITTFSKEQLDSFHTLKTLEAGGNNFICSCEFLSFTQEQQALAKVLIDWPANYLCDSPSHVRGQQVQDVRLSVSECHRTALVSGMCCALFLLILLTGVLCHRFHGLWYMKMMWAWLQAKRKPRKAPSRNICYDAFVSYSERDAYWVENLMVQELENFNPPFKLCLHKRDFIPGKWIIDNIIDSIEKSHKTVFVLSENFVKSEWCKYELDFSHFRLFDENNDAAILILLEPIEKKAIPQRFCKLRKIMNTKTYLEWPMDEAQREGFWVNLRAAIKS
T1 sequence (Q15399 whole entry): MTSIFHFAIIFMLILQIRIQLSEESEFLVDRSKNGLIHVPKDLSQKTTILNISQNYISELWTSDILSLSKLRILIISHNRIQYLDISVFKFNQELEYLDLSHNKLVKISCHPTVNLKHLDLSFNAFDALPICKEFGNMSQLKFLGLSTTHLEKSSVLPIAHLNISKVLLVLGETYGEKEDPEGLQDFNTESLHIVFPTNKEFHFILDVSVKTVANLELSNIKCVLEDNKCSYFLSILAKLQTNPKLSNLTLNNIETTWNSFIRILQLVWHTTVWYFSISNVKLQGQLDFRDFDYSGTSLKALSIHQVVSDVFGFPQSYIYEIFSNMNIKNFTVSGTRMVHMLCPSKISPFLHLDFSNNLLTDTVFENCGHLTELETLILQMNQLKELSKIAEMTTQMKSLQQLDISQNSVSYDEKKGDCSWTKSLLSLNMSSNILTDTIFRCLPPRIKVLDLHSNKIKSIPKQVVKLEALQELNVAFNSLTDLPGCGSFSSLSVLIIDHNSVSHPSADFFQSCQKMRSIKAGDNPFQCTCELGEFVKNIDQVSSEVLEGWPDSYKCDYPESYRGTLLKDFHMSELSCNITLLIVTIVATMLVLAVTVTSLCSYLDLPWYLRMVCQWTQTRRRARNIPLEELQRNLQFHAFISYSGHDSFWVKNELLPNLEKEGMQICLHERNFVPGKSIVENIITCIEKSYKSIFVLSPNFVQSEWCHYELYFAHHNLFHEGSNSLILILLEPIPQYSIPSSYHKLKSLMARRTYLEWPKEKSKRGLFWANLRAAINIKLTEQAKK
In experiment [2] the target is T1, Toll-like receptor 1/2. Put plainly: Agonist activity at human TLR2/TLR1 transfected in HEK293T cells assessed as relative light unit at 100 ng/ml incubated for 24 hrs by dual luciferase reporter gene assay. As to conditions: filed as agonist. Format: cell-based.
The nature of experiment [3]: Antitumor activity against mouse Lewis lung carcinoma cell line xenografted with C57BL/6J mouse assessed as tumor growth inhibition at 5 mg/kg,ip administrated every 2 days for 21 days relative to control. The experiment is classed as functional. Conditions: 504 h, time 21 day, read-out: TGI.
Another experiment concerns A549. In words: Antitumor activity against human A549 cells xenografted with BALB/c mouse assessed as tumor growth inhibition at 5 mg/kg,ip administrated every 2 days for 30 days relative to control. The experiment is classed as functional. As to conditions: A549, 720 h, time 30 day, read-out: TGI. (A xenograft is tissue or cells of one species grown in another, often human tumour cells in immunodeficient mice.)

As a reminder, the EC50 is the midpoint of the concentration-response curve. A low value points to greater potency.

At Toll-like receptor 1/2 [1], `O=[N+]([O-])c1ccc(F)c(-c2nc(C3=Cc4ccccc4OC3)no2)c1` returned an EC50 of 30.1 nM.

In the case of `CCCCCCCCCCCCCCCC(=O)N[C@@H](CSCC(COC(=O)CCCCCCCCCCCCCCC)OC(=O)CCCCCCCCCCCCCCC)C(=O)N[C@@H](CO)C(=O)N[C@@H](CCCCN)C(=O)N[C@@H](CCCCN)C(=O)N[C@@H](CCCCN)C(=O)N[C@@H](CCCCN)C(=O)O` (stereo partly specified) (Palmitoyl-C(X1)SKKKK-OH), on Toll-like receptor 1/2 [2], the Activity came to 7.95 RLU. For the compound `CNc1ccc([N+](=O)[O-])cc1-n1cnc(-c2ccc(C(F)(F)F)cc2O)c1`, the 50% effective concentration (EC50) on Toll-like receptor 1/2 [1] amounted to 35 nM. Also, in experiment [3], the inhibition in vivo at 5 mg/kg is 63.5%.

For `O=c1[nH]cc(F)c(=O)[nH]1` [FLUOROURACIL], the figures for the inhibition in vivo at 5 mg/kg (with A549; in experiment [3]) were 77.5% and 79.4%, respectively.
